# Laboratory results reported in patent US20120115896A1, “ISOGENIC HUMAN CELL LINES COMPRISING MUTATED CANCER ALLELES AND PROCESS USING THE CELL LINES” (priority 2008, published 2012).
# Key:
# [1] = tested on: hTERT-HME1 WT, PIK3CA E545K and H1047R KI cells; assay: CFSE time-course of cell divisions by flow cytometry; format: cell-based, human; details: everolimus 500 nM, 7 days
# Method: (§1) (A) CFSE-labelled cells were analyzed by flow cytometry at the indicated time-points (top panels). The maximum fluorescence intensity for all samples was recorded at day 0 (depicted in filled black). […] (B) Cells of the indicated genotype were incubated with everolimus 500 nM for 48 h, after which cell cycle was analyzed by flow cytometry. No increase of the subG1 apoptotic fraction of cells was observed upon treatment. Representative data from 3 independent experiments are shown.
# (§2) For time-course experiments, on the initial day hTERT-HME1 cells were labelled with 3 μM CFSE (5-(and -6)-carboxyfluorescein diacetate, succinimidyl ester, Invitrogen C1157, Milan, Italy) in PBS in the dark for 30 minutes. After washing and recording baseline fluorescence, cells were plated in media containing 1% FBS and 2 ng/mL EGF, and treatment with everolimus was initiated, replenishing the drug on a daily basis. For cell cycle analysis, trypsinized cells were washed with PBS and cell nuclei DNA were stained with propidium iodide (PI) for at least 120 minutes using a commercial kit (DNA con 3, Consul T.S., Orbassano, Italy).
# (§3) All fluorescence levels were detected by flow cytometry on a FACSCalibur (Becton Dickinson, Milan, Italy) and analyzed using CellQuest software. The number of events collected for each sample varied between 15,000 and 50,000. After doublets exclusion, an extended analysis of the DNA content and calculations of the percentage of cells in each phase of the cell cycle were performed on ModFit Lt software (Verity Software House, Topsham, Me.).
# [2] = tested on: hTERT-HME1 cells of the indicated genotype (WT, PIK3CA KI, KRAS G13D, DKI KRAS G13D + PIK3CA H1047R); assay: Cell cycle analysis by flow cytometry (propidium iodide) after everolimus 500 nM for 48 h; format: cell-based, human; details: for cells in G1 phase, Mean / cells in G2/M phase, Mean / cells in S phase, Mean / cells in G2 + S, Mean / cells in Sub-G1, Mean: FACS
# Method: as §1, §2, §3
# To shed light on the preferential effect induced by everolimus in PIK3CA KI clones, the present inventors also performed FACS analysis. […] The data shown in table 7 are the results of hTERT-HME1 cells of the indicated genotype incubated for 48 h with everolimus (500 nM), wherein the effect on cell cycle was analyzed by FACS. […] Accordingly, the proportions of cells in the S- and G2/M-phases decreased. Means of at least 4 independent experiments are shown. Significance by paired t test was taken at p<0.01.
# To further explore the role of mutant KRAS on everolimus' response, the present inventors recapitulated the genetic milieu of the HCT116 colorectal cancer cells in hTERT-HME1 cells, by introducing via homologous recombination both KRAS G13D and PIK3CA H1047R alleles in their genome. This approach generated double-KI (DKI) cells, in which each mutation is expressed under the corresponding gene's own promoter. […] Means of at least 4 independent experiments are shown. Significance by paired t test was taken at p<0.01.
# [3] = tested on: phosphorylation of p70S6K, RpS6, AKT and MAPK in HCT 116 and KRAS WT/- HKe-3 cells; assay: Biochemical effects of everolimus: immunoblot and ELISA of phospho-proteins; format: cell-based, human; details: everolimus 500 nM, 30 minutes
# Method: (A, D) After 30 minutes'treatment with everolimus 500 nM, HCT 116 parental cells and its derivative KRAS WT/-HKe-3 clone were lysed and immunoblotted with the anti-phospho-P70S6K, totalP70S6K, phospho-MAPK and total MAPK (B, C, E) The same lysates were used also for ELISA measurements of total AKT, phosphoAKT (Thr308), phosphoAKT (Ser473), total RpS6 and phosphoRpS6 levels. Numbers indicate the ratio of phosphorylated protein related to total protein levels and are normalized respect to the untreated (NT) HCT 116 cells.
# SDS PAGE was performed using Invitrogen Precasted gels (Invitrogen Carlsbad, Calif.); western blotting transfer onto Hybond-C Extra membranes (Amersham, Amersham Biosciences, Uppsala, Sweden) was done following standard methods. The primary antibodies used for immunoblotting were: Anti-AKT (Cell Signaling, Technology, Danvers, Mass.); Anti-phospho-AKT S473 (Cell Signaling, Technology, Danvers, Mass.); Anti-Actin and Anti-Vinculin (Sigma-Aldrich, St. Louis, Mo.); Phospho-p44/42 Map kinase (Thr202/Tyr204) (Cell Signaling, Technology, Danvers, Mass.); Anti-phospho-EGFR Receptor (Tyr 1068) and Anti EGFR Receptor (Cell Signaling Technology, Danvers, Mass.).
# [4] = tested on: DLD-1 colorectal cancer cells and derivative clones (DKO-1, DKO-3, DKO-4, PIK3CA WT/mutant); assay: Viability (ATP assay) of DLD-1 cells and isogenic KRAS / PIK3CA derivative clones
# Method: Results are expressed as percent of viability compared to cells treated with DMSO only ('control') and represent mean±SD of at least three independent observations.
# After serial dilutions, 100 μl of drugs in serum free medium were added to cells with a multichannel pipette. Vehicle and medium-only containing wells were added as controls. Plates were incubated at 37° C. in 5% CO2 for 96 h, after which cell viability was assessed by ATP content using the CellTiter-Glo® Luminescent Assay (Promega Madison, Wis.).
# [5] = tested on: HKe-3 (HCT116-derivative KRAS WT clone) cells; assay: Proliferation under everolimus (72 hours) of cells infected with control or KRASG13D lentivirus; format: cell-based, human; details: KRAS G13D lentivirus, FIG. 17A
# Method: (§4) Effect of everolimus (72 hours) on proliferation of HKe-3 (HCT116-derivative KRAS WT clone) (A) and ME-180 (B) cells infected with control or KRASG13D lentivirus.
# (§5) The present inventors transduced HCT116-derivative clones that had only the KRAS WT allele (HKe-3), and the […] cancer cell line ME-180 (carrying PIK3CA E545K mutant and KRAS WT) with a lentiviral vector encoding for KRAS G13D cDNA.
# ME-180 cells = assay: as above; format: cell-based, human; details: KRAS G13D lentivirus, FIG. 17B
# Method: as §4, §5
# [6] = hTERT-HME1 DKI KRAS G13D + PIK3CA H1047R, propidium iodide
# [7] = hTERT-HME1 KI KRAS G13D, propidium iodide
smiles,measurement,setting,value
"CO[C@H]1C[C@@H]2CC[C@@H](C)[C@@](O)(O2)C(=O)C(=O)N2CCCC[C@H]2C(=O)O[C@H]([C@H](C)C[C@@H]2CC[C@@H](OCCO)[C@H](OC)C2)CC(=O)[C@H](C)/C=C(\C)[C@@H](O)[C@@H](OC)C(=O)[C@H](C)C[C@H](C)/C=C/C=C/C=C/1C [everolimus, Everolimus]",slowing of cell growth (CFSE),[1]; PIK3CA E545K,less pronounced
same,slowing of cell growth (CFSE),[1]; PIK3CA H1047R,particularly evident
same,slowing of cell growth (CFSE),[1]; WT cells,only minimal
same,cell cycle response of DKI cells (KRAS G13D and PIK3CA H1047R),[2],cell cycle response comparable to that observed in the parental WT population
same,"cells in G1 phase, Mean",[2]; [6],77.5
same,"cells in G2/M phase, Mean",[2]; [6],10.5
same,"cells in S phase, Mean",[2]; [6],12.0
same,"cells in G1 phase, Mean",[2]; [7],75.7
same,"cells in G2/M phase, Mean",[2]; [7],13.1
same,"cells in S phase, Mean",[2]; [7],11.2
same,"cells in G1 phase, Mean",[2]; hTERT-HME1 KI PIK3CA E545K,78.5
same,"cells in G2 + S, Mean",[2]; hTERT-HME1 KI PIK3CA E545K,21.5
same,"cells in G2/M phase, Mean",[2]; hTERT-HME1 KI PIK3CA E545K,12.7
same,"cells in S phase, Mean",[2]; hTERT-HME1 KI PIK3CA E545K,8.8
same,"cells in Sub-G1, Mean",[2]; hTERT-HME1 KI PIK3CA E545K,0.9
same,"cells in G1 phase, Mean",[2]; hTERT-HME1 KI PIK3CA H1047R,88.7
same,"cells in G2 + S, Mean",[2]; hTERT-HME1 KI PIK3CA H1047R,11.3
same,"cells in G2/M phase, Mean",[2]; hTERT-HME1 KI PIK3CA H1047R,4.9
same,"cells in S phase, Mean",[2]; hTERT-HME1 KI PIK3CA H1047R,6.4
same,"cells in Sub-G1, Mean",[2]; hTERT-HME1 KI PIK3CA H1047R,0.6
same,"cells in G1 phase, Mean",[2]; hTERT-HME1 WT,75.7
same,"cells in G2 + S, Mean",[2]; hTERT-HME1 WT,24.3
same,"cells in G2/M phase, Mean",[2]; hTERT-HME1 WT,14.2
same,"cells in S phase, Mean",[2]; hTERT-HME1 WT,10.1
same,"cells in Sub-G1, Mean",[2]; hTERT-HME1 WT,0.9
same,apoptosis,"[2]; vehicle versus drug-treated, FIG. 18B",almost undetectable
same,MAPK phosphorylation in drug treated HKe-3 cells compared to parental,[3]; FIG. 15A,higher level of MAPK phosphorylation
same,levels of activated RpS6,[3]; FIG. 15E,decreased accordingly
same,phosphorylation of p70S6K,"[3]; parental and KRAS D13 deleted cells, FIG. 15D",abrogated
same,response of DLD-1 clones knock-out for the mutated KRAS D13 allele versus parental / DKO-1,"[4]; DKO-3 and DKO-4, FIG. 7C",more sensitive to everolimus
same,response of DLD-1 cells knock-out for the mutated PIK3CA K545 allele,[4]; FIG. 14B,as sensitive to everolimus as either the corresponding parental cells or a clone retaining only the PIK3CA mutated allele
same,response after (re-)introduction of mutated KRAS versus control vector,[5],decreased response to the antiproliferative effects
same,response after introduction of mutated KRAS versus control vector,ME-180 cells,decreased response to the antiproliferative effects
